Patent US8471005B2 (Cephalon, Inc., priority 2008, dated 2013)
pIC50: −log10 of the molar value. Read-outs that look alike come from different tables or passages of the source.

What was measured:
[1] = target: T1, JAK2 (Homo sapiens, UniProt O60674); test: Recombinant Human JAK2 Kinase Assay (TRF); format: biochemical; conditions: read-out: JAK2 Potency
T1 construct: host or cells: baculovirus expression system
How it was run: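 TRF read-out: Eu-N1 PY100 anti-phosphotyrosine antibody detects product. Enzyme is baculovirus-expressed JAK2 at 15 ng/ml; substrate is a biotinyl 15-mer peptide bound to Neutravidin-coated wells. Buffer 20 mM HEPES pH 7.2, 0.2 μM ATP, 1 mM MnCl2, 0.1% BSA, 2.5% DMSO final; 20 min, RT.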

[2] = target: T2, ALK (Homo sapiens, UniProt Q9UM73); test: ALK Kinase Assay (ELISA/TRF, PLC-γ substrate); format: biochemical; conditions: read-out: ALK Potency
T2 construct: host or cells: baculovirus expression system
T2 sequence (Q9UM73 19-1620): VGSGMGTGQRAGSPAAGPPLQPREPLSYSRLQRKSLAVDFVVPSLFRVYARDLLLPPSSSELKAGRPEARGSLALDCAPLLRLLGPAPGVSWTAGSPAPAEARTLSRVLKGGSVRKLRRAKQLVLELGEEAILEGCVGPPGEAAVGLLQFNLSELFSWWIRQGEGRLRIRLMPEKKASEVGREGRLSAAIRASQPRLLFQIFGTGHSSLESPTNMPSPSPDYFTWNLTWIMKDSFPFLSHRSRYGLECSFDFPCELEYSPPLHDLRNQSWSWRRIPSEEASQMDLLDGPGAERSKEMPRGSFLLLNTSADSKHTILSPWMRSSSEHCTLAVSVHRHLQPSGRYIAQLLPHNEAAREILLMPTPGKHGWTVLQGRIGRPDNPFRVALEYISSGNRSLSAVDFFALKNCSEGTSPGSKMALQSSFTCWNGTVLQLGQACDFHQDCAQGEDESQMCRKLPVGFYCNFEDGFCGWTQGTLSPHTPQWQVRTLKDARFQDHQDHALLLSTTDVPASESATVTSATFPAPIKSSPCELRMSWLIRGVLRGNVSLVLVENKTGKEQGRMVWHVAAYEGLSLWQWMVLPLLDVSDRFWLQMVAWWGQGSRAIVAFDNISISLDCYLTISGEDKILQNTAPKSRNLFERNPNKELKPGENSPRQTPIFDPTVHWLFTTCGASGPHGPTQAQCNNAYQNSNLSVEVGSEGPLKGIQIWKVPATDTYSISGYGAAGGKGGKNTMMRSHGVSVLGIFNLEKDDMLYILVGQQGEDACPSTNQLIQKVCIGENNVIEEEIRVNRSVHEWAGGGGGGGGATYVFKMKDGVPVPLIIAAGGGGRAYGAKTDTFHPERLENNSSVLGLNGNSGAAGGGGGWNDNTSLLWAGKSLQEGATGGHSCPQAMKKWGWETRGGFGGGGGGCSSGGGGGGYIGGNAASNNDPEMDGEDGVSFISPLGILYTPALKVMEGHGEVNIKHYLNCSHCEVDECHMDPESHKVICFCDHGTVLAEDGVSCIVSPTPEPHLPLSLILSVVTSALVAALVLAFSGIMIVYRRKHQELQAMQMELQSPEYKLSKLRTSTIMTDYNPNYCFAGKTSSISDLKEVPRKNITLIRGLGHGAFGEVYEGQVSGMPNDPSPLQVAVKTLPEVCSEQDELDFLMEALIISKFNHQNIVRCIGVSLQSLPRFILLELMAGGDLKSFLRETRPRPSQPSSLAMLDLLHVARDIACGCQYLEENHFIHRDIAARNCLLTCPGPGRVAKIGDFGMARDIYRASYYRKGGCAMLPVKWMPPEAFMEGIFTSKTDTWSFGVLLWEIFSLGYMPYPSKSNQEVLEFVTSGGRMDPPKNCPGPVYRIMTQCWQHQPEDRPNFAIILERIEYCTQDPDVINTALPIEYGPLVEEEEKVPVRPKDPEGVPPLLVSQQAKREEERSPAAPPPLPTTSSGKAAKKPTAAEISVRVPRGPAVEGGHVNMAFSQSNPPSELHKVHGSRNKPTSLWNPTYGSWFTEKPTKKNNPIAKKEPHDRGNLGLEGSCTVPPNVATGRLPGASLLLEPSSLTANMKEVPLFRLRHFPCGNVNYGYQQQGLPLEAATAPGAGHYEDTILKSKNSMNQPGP
How it was run: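 Time-resolved fluorescence ELISA using Eu-N1 PT66 antibody to detect phosphorylated PLC-γ (coated at 10 μg/mL). Enzyme at 30 ng/ml ALK; 15 min incubation, 37° C.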

[3] = JAK2 kinase inhibition, 0.2 μM ATP
[4] = ALK kinase inhibition, 1 μM ATP

T1 sequence (O60674 whole entry): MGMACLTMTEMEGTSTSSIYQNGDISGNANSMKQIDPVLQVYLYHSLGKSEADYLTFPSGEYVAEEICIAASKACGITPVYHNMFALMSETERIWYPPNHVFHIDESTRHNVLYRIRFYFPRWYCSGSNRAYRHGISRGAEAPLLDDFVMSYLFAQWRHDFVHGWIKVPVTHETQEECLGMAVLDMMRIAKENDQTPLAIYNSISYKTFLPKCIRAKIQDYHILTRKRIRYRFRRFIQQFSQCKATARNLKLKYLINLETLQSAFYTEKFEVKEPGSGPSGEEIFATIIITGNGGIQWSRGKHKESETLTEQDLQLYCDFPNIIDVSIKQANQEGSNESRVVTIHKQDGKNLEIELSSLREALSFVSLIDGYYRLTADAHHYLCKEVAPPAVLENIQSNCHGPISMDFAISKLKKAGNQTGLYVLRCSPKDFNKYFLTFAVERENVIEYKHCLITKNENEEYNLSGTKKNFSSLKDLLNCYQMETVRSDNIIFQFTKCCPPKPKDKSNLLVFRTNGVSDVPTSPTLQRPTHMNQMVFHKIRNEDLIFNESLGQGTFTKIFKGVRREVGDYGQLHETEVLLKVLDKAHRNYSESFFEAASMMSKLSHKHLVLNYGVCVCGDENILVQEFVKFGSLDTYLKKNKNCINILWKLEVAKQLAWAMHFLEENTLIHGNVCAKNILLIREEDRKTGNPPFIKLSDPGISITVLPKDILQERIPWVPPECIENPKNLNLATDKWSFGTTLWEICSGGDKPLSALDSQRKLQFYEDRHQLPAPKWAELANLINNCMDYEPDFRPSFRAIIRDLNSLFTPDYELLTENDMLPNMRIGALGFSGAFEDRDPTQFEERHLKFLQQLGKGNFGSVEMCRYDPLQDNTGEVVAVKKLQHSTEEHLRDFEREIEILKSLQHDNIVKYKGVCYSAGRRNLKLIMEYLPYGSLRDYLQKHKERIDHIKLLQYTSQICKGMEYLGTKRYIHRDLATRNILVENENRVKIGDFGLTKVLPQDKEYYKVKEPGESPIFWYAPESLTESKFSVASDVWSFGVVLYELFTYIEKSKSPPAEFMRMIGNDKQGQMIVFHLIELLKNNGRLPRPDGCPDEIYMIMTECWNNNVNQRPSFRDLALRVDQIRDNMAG

| pIC50 [1, 3] | pIC50 [2, 4] | pIC50 ([1]; JAK2 Kinase Inhibition) | pIC50 ([2]; ALK Kinase Inhibition) | Molecule |
| --- | --- | --- | --- | --- |
| 6.00 to 7.00 | < 5.00 |  |  | CCN1CCN(C(=O)c2ccc(Nc3ncc4c(-c5ccccc5OC)ccn4n3)cc2)CC1 [Example 723, (4-Ethyl-piperazin-1-yl)-{4-[5-(2-methoxy-phenyl)-pyrrolo[2,1-f][1,2,4]triazin-2-ylamino]-phenyl}-methanone] |
|  |  | 5.00 to 6.00 | 6.00 to 7.00 | COc1cc(N2CCCC(N3CCN(C(=O)OCc4ccccc4)CC3)C2)ccc1Nc1ncc2ccc(-c3ccccc3OC)n2n1 (centres unmarked) [Example 234, 4-(1-{3-Methoxy-4-[7-(2-methoxy-phenyl)-pyrrolo[2,1-f][1,2,4]triazin-2-ylamino]-phenyl}-piperidin-3-yl)-piperazine-1-carboxylic acid benzyl ester] |
|  |  | > 7.00 | > 7.00 | COc1cc(N2CCC(N3CCOCC3)CC2)ccc1Nc1ncc2ccc(-c3ccccc3N(CCF)S(C)(=O)=O)n2n1 [Example 1463, N-(2-Fluoro-ethyl)-N-(2-{2-[2-methoxy-4-(4-morpholin-4-yl-piperidin-1-yl)-phenylamino]-pyrrolo[2,1-f][1,2,4]triazin-7-yl}-phenyl)-methanesulfonamide] |
|  |  | > 7.00 | 5.00 to 6.00 | CN1CCN(Cc2ccc(Nc3ncc4ccc(-c5ccc(S(C)(=O)=O)cc5)n4n3)cc2)CC1 [Example 355, [7-(4-Methanesulfonyl-phenyl)-pyrrolo[2,1-f][1,2,4]triazin-2-yl]-[4-(4-methyl-piperazin-1-ylmethyl)-phenyl]-amine] |
| 6.00 to 7.00 | > 7.00 |  |  | COc1cc(C2CCN(CC(N)=O)CC2)ccc1Nc1ncc2ccc(-c3cccc(S(=O)(=O)NC4CC4)c3)n2n1 [Example 697, 2-(4-{4-[7-(3-Cyclopropylsulfamoyl-phenyl)-pyrrolo[2,1-f][1,2,4]triazin-2-ylamino]-3-methoxy-phenyl}-piperidin-1-yl)-acetamide] |
|  |  | > 7.00 | > 7.00 | C[C@H](O)CN1CCN(c2ccc(Nc3ncc4ccc(-c5cccc(Cl)c5)n4n3)cc2)CC1 [Example 204, (S)-1-(4-{4-[7-(3-Chloro-phenyl)-pyrrolo[2,1-f][1,2,4]triazin-2-ylamino]-phenyl}-piperazin-1-yl)-propan-2-ol] |
|  |  | > 7.00 | 6.00 to 7.00 | CC(C)(C)NS(=O)(=O)c1cccc(-c2ccc3cnc(Nc4ccc(CN5CCCC5)cc4)nn23)c1 [Example 1429, N-tert-Butyl-3-[2-(4-pyrrolidin-1-ylmethyl-phenylamino)-pyrrolo[2,1-f][1,2,4]triazin-7-yl]-benzenesulfonamide] |
|  |  | > 7.00 | < 5.00 | COc1cccc(Nc2ncc3cc4ccccc4n3n2)c1 [Example 272, (3-Methoxy-phenyl)-[1,2,4]triazino[1,6-a]indol-2-yl-amine] |
| 6.00 to 7.00 | > 7.00 |  |  | COc1cc(N2CCCN(C)CC2)ccc1Nc1ncc2ccc(-c3ccccc3OC)n2n1 [Example 765, [2-Methoxy-4-(4-methyl-[1,4]diazepan-1-yl)-phenyl]-[7-(2-methoxy-phenyl)-pyrrolo[2,1-f][1,2,4]triazin-2-yl]-amine] |
| 6.00 to 7.00 | > 7.00 |  |  | COc1cc(CN2CCN(C[C@H](C)O)CC2)ccc1Nc1ncc2ccc(-c3ccccc3OC)n2n1 [Example 1226, (S)-1-(4-{3-Methoxy-4-[7-(2-methoxy-phenyl)-pyrrolo[2,1-f][1,2,4]triazin-2-ylamino]-benzyl}-piperazin-1-yl)-propan-2-ol] |
|  |  | > 7.00 | 6.00 to 7.00 | CC(C)(C)NS(=O)(=O)c1cccc(-c2ccc3cnc(Nc4ccc(OCCN5CCCC5)cc4)nn23)c1 [Example 118, N-tert-Butyl-3-{2-[4-(2-pyrrolidin-1-yl-ethoxy)-phenylamino]-pyrrolo[2,1-f][1,2,4]triazin-7-yl}-benzenesulfonamide] |
|  |  | > 7.00 | > 7.00 | CNC(=O)c1ccc(-c2ccc3cnc(Nc4ccc(N5CCC(N6CCN(C)CC6)CC5)cc4OC)nn23)cc1 [Example 242, 4-(2-{2-Methoxy-4-[4-(4-methyl-piperazin-1-yl)-piperidin-1-yl]-phenylamino}-pyrrolo[2,1-f][1,2,4]triazin-7-yl)-N-methyl-benzamide] |
|  |  | > 7.00 | 6.00 to 7.00 | CS(=O)(=O)c1ccc(-c2ccc3cnc(Nc4ccc(N5CCN(CCO)CC5)cc4)nn23)cc1 [Example 88, 2-(4-{4-[7-(4-Methanesulfonyl-phenyl)-pyrrolo[2,1-f][1,2,4]triazin-2-ylamino]-phenyl}-piperazin-1-yl)-ethanol] |
| > 7.00 | 6.00 to 7.00 |  |  | CN1CCN(c2ccc(Nc3ncc4ccc(-c5cnn(C)c5)n4n3)cc2F)CC1 [Example 1215, [3-Fluoro-4-(4-methyl-piperazin-1-yl)-phenyl]-[7-(1-methyl-1H-pyrazol-4-yl)-pyrrolo[2,1-f][1,2,4]triazin-2-yl]-amine] |
| > 7.00 | 5.00 to 6.00 |  |  | CC(C)(C)NS(=O)(=O)c1cccc(-c2ccc3cnc(Nc4ccc5cnn(CCN6CCOCC6)c5c4)nn23)c1 [Example 1324, N-tert-Butyl-3-{2-[1-(2-morpholin-4-yl-ethyl)-1H-indazol-6-ylamino]-pyrrolo[2,1-f][1,2,4]triazin-7-yl}-benzenesulfonamide] |
| > 7.00 | < 5.00 |  |  | COc1ccc(-c2ccc3cnc(Nc4cc5c(cc4F)CCC(=O)N5)nn23)cn1 [Example 983, 6-Fluoro-7-[7-(6-methoxy-pyridin-3-yl)-pyrrolo[2,1-f][1,2,4]triazin-2-ylamino]-3,4-dihydro-1H-quinolin-2-one] |
| > 7.00 | 6.00 to 7.00 |  |  | CN(c1cccc(-c2ccc3cnc(Nc4ccc(C5CCN(CC(N)=O)CC5)cc4)nn23)c1)S(C)(=O)=O [Example 959, 2-[4-(4-{7-[3-(Methanesulfonyl-methyl-amino)-phenyl]-pyrrolo[2,1-f][1,2,4]triazin-2-ylamino}-phenyl)-piperidin-1-yl]-acetamide] |
| > 7.00 | 6.00 to 7.00 |  |  | CC(C)(C)NS(=O)(=O)c1cccc(-c2ccc3cnc(Nc4cccc(OCCN5CCOCC5)c4)nn23)c1 [Example 1001, N-tert-Butyl-3-{2-[3-(2-morpholin-4-yl-ethoxy)-phenylamino]-pyrrolo[2,1-f][1,2,4]triazin-7-yl}-benzenesulfonamide] |
| > 7.00 | 6.00 to 7.00 |  |  | CN(c1ccccc1-c1ccc2cnc(Nc3cnn(C4CCNCC4)c3)nn12)S(C)(=O)=O [Example 717, N-Methyl-N-{2-[2-(1-piperidin-4-yl-1H-pyrazol-4-ylamino)-pyrrolo[2,1-f][1,2,4]triazin-7-yl]-phenyl}-methanesulfonamide] |
| 6.00 to 7.00 | > 7.00 |  |  | COc1cc(C2CCN(CC(N)=O)C2)ccc1Nc1ncc2ccc(-c3ccccc3N(C)S(C)(=O)=O)n2n1 (racemic) [Example 837, (±)-2-[3-(4-{7-[2-(Methanesulfonyl-methyl-amino)-phenyl]-pyrrolo[2,1-f][1,2,4]triazin-2-ylamino}-3-methoxy-phenyl)-pyrrolidin-1-yl]-acetamide] |
|  |  | > 7.00 | < 5.00 | CS(=O)(=O)c1ccc(-c2ccc3cnc(Nc4ccc(N5CCCCC5)cc4)nn23)cc1 [Example 61, [7-(4-Methanesulfonyl-phenyl)-pyrrolo[2,1-f][1,2,4]triazin-2-yl]-(4-piperidin-1-yl-phenyl)-amine] |
|  |  | > 7.00 | 6.00 to 7.00 | COc1ccccc1-c1ccc2cnc(Nc3ccc4nc(CN5CCOCC5)[nH]c4c3)nn12 [Example 1518, [7-(2-Methoxy-phenyl)-pyrrolo[2,1-f][1,2,4]triazin-2-yl]-(2-morpholin-4-ylmethyl-3H-benzimidazol-5-yl)-amine] |
| > 7.00 | < 5.00 |  |  | CC(C)(C)NS(=O)(=O)c1cccc(-c2ccc3cnc(Nc4ccc5nc(C(F)(F)F)[nH]c5c4)nn23)c1 [Example 1297, N-tert-Butyl-3-[2-(2-trifluoromethyl-3H-benzimidazol-5-ylamino)-pyrrolo[2,1-f][1,2,4]triazin-7-yl]-benzenesulfonamide] |
| > 7.00 | > 7.00 |  |  | CN(c1ccccc1-c1ccc2cnc(Nc3ccc(C4CCN(CCO)CC4)cc3)nn12)S(C)(=O)=O [Example 669, N-[2-(2-{4-[1-(2-Hydroxy-ethyl)-piperidin-4-yl]-phenylamino}-pyrrolo[2,1-f][1,2,4]triazin-7-yl)-phenyl]-N-methyl-methanesulfonamide] |
| > 7.00 | 5.00 to 6.00 |  |  | COc1ccc(-c2ccc3cnc(Nc4ccc5c(c4)CN(C)C5)nn23)cn1 [Example 937, [7-(6-Methoxy-pyridin-3-yl)-pyrrolo[2,1-f][1,2,4]triazin-2-yl]-(2-methyl-2,3-dihydro-1H-isoindol-5-yl)-amine] |
|  |  | > 7.00 | 6.00 to 7.00 | O=S(=O)(NCCO)c1cccc(-c2ccc3cnc(Nc4ccc(N5CCOCC5)cc4)nn23)c1 [Example 368, N-(2-Hydroxy-ethyl)-3-[2-(4-morpholin-4-yl-phenylamino)-pyrrolo[2,1-f][1,2,4]triazin-7-yl]-benzenesulfonamide] |
|  |  | 6.00 to 7.00 | < 5.00 | CN(C)S(=O)(=O)c1cccc(Nc2ncc3cc4ccccc4n3n2)c1 [Example 273, N,N-Dimethyl-3-([1,2,4]triazino[1,6-a]indol-2-ylamino)-benzenesulfonamide] |

| Molecule | pIC50 [1, 3] | pIC50 [2, 4] | pIC50 ([1]; JAK2 Kinase Inhibition) | pIC50 ([2]; ALK Kinase Inhibition) |
| --- | --- | --- | --- | --- |
| 7-(2-methoxy-phenyl)-pyrrolo(2,1-f)(1,2,4)triazin-2-yl-6-amino-1′-methyl-spiro(2H-1-benzopyran-2,4′-piperidine) [Example 377] |  |  | > 7.00 | > 7.00 |
